Results: patent US20150044702A1, “MEANS AND METHODS FOR ASSESSING DISORDERS RELATED TO IMPAIRED IRON […] ENERGY METABOLISM” (BASF SE, priority 2012, published 2015)
Marks after values point to notes of the source that are not given here.

Test: 28-day rat study, plasma metabolite profiling: markers for Duodenum iron deficiency;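 further: rats given the compounds once a day across 28 days, plasma from fasted animals profiled by GC-MS and LC-MS, separate control groups of five rats per sex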
Settings: for Cholic acid, treatment ratio versus control / Choline plasmalogen (C18,C20:4), treatment ratio versus control / Citrate, treatment ratio versus control / Creatinine, treatment ratio versus control / DAG (C18:1,C18:2), treatment ratio versus control / Hippuric acid, treatment ratio versus control / Indole-3-propionic acid, treatment ratio versus control / Methionine, treatment ratio versus control / Proline, treatment ratio versus control / Serine, treatment ratio versus control / TAG (C16:0,C18:1,C18:3), treatment ratio versus control / TAG (C18:1,C18:2), treatment ratio versus control / TAG (C18:2,C18:2), treatment ratio versus control / TAG (C18:2,C18:3), treatment ratio versus control / TAG (DAG-Fragment), treatment ratio versus control / TAG No 02, treatment ratio versus control / TAG No 07, treatment ratio versus control / Threonine, treatment ratio versus control / alpha-Tocopherol, treatment ratio versus control / Alanine, treatment ratio versus control / Campesterol, treatment ratio versus control / Glutamate, treatment ratio versus control / Glutamine, treatment ratio versus control / Lysophosphatidylcholine (C20:4), treatment ratio versus control / Malate, treatment ratio versus control / Ornithine, treatment ratio versus control / Phosphatidylcholine (C18:0, C22:6), treatment ratio versus control / Threonic acid, treatment ratio versus control: plasma
Protocol: A group of each 5 male and female rats was dosed once daily with the indicated compounds (see Table 4, below for compounds, applied doses and administration details) over 28 days.
Each dose group in the studies consisted of five rats per sex. Additional groups of each 5 male and female animals served as controls. Before starting the treatment period, animals, which were 62-64 days old when supplied, were acclimatized to the housing and environmental conditions for 7 days. All animals of the animal population were kept under the same constant temperature (20-24±3° C.) and the same constant humidity (30-70%). The animals of the animal population were fed ad libitum. The food to be used was essentially free of chemical or microbial contaminants. Drinking water was also offered ad libitum. Accordingly, the water was free of chemical and microbial contaminants as laid down in the European Drinking Water Directive 98/83/EG. The illumination period was 12 hours light followed by 12 hours darkness (12 hours light, from 6:00 to 18:00, and 12 hours darkness, from 18:00 to 6:00). The studies were performed in an AAALAC-approved laboratory in accordance with the German Animal Welfare Act and the European Council Directive 86/609/EE. The test system was arranged according to the OECD 407 guideline for the testing of chemicals for repeated dose 28-day oral toxicity study in rodents.
In the morning of day 7, 14, and 28, blood was taken from the retroorbital venous plexus from fasted anaesthetized animals. From each animal, 1 ml of blood was collected with EDTA as anticoagulant. The samples were centrifuged for generation of plasma. All plasma samples were covered with a N2 atmosphere and then stored at −80° C. until analysis.
For mass spectrometry-based metabolite profiling analyses plasma samples were extracted and a polar and a non-polar (lipid) fraction was obtained. For GC-MS analysis, the non-polar fraction was treated with methanol under acidic conditions to yield the fatty acid methyl esters. Both fractions were further derivatised with O-methyl-hydroxyamine hydrochloride and pyridine to convert Oxo-groups to O-methyloximes and subsequently with a silylating agent before analysis. In LC-MS analysis, both fractions were reconstituted in appropriate solvent mixtures. HPLC was performed by gradient elution on reversed phase separation columns.
Steroids and their metabolites were measured by online SPE-LC-MS (Solid phase extraction-LC-MS).
Following comprehensive analytical validation steps, the data for each analyte were normalized against data from pool samples. These samples were run in parallel through the whole process to account for process variability. The significance of treatment group values specific for sex, treatment duration and metabolite was determined by comparing means of the treated groups to the means of the respective untreated control groups using WELCH-test and quantified with treatment ratios versus control and p-values.

In the case of `CNC(=O)/C(=N/OC)c1ccccc1COc1cc(C)ccc1C` [Dimoxystrobin, (E)-2-(methoxyimino)-N-methyl-2-[alpha-(2,5-xylyloxy)-o-tolyl]acetamide], the “Cholic acid, treatment ratio versus control” value (female rats, day 7) is reported as 70.58*, the “Choline plasmalogen (C18,C20:4), treatment ratio versus control” value (female rats, day 7) is reported as 1.11 and the “Citrate, treatment ratio versus control” value (female rats, day 7) is reported as 1.22*. For the same molecule, the “Creatinine, treatment ratio versus control” value (female rats, day 7) was 0.71, the “DAG (C18:1,C18:2), treatment ratio versus control” value (female rats, day 7) was 1.9* and the “Hippuric acid, treatment ratio versus control” value (female rats, day 7) was 0.85. The “Indole-3-propionic acid, treatment ratio versus control” value (female rats, day 7) was 1.53, the “Methionine, treatment ratio versus control” value (female rats, day 7) was 1.05 and the “Proline, treatment ratio versus control” value (female rats, day 7) was 1.28*. For the same molecule, the “Serine, treatment ratio versus control” value (female rats, day 7) was 1.5*, the “TAG (C16:0,C18:1,C18:3), treatment ratio versus control” value (female rats, day 7) was 4.14* and the “TAG (C18:1,C18:2), treatment ratio versus control” value (female rats, day 7) was 4.42*. For the same molecule, the “TAG (C18:2,C18:2), treatment ratio versus control” value (female rats, day 7) was 5.1*, the “TAG (C18:2,C18:3), treatment ratio versus control” value (female rats, day 7) was 4.2* and the “TAG (DAG-Fragment), treatment ratio versus control” value (female rats, day 7) was 4.39*. For the same molecule, the “TAG No 02, treatment ratio versus control” value (female rats, day 7) was 0.75*, the “TAG No 07, treatment ratio versus control” value (female rats, day 7) was 2.96* and the “Threonine, treatment ratio versus control” value (female rats, day 7) was 1.62*. The “alpha-Tocopherol, treatment ratio versus control” value (female rats, day 7) was 1.74*, the “Cholic acid, treatment ratio versus control” value (female rats, day 14) was 39.73* and the “Choline plasmalogen (C18,C20:4), treatment ratio versus control” value (female rats, day 14) was 1.13*. For the same molecule, the “Citrate, treatment ratio versus control” value (female rats, day 14) was 1.17*, the “Creatinine, treatment ratio versus control” value (female rats, day 14) was 1.07 and the “DAG (C18:1,C18:2), treatment ratio versus control” value (female rats, day 14) was 1.96*. For the same molecule, the “Hippuric acid, treatment ratio versus control” value (female rats, day 14) was 0.51*, the “Indole-3-propionic acid, treatment ratio versus control” value (female rats, day 14) was 0.87 and the “Methionine, treatment ratio versus control” value (female rats, day 14) was 1.18*. The “Proline, treatment ratio versus control” value (female rats, day 14) was 1.35*, the “Serine, treatment ratio versus control” value (female rats, day 14) was 1.66* and the “TAG (C16:0,C18:1,C18:3), treatment ratio versus control” value (female rats, day 14) was 3.15. The “TAG (C18:1,C18:2), treatment ratio versus control” value (female rats, day 14) was 3.71*, the “TAG (C18:2,C18:2), treatment ratio versus control” value (female rats, day 14) was 3.83* and the “TAG (C18:2,C18:3), treatment ratio versus control” value (female rats, day 14) was 2.76*. For the same molecule, the “TAG (DAG-Fragment), treatment ratio versus control” value (female rats, day 14) was 4.43*, the “TAG No 02, treatment ratio versus control” value (female rats, day 14) was 0.73* and the “TAG No 07, treatment ratio versus control” value (female rats, day 14) was 1.7. For the same molecule, the “Threonine, treatment ratio versus control” value (female rats, day 14) was 1.34*, the “alpha-Tocopherol, treatment ratio versus control” value (female rats, day 14) was 1.43* and the “Cholic acid, treatment ratio versus control” value (female rats, day 28) was 6.46*. The “Choline plasmalogen (C18,C20:4), treatment ratio versus control” value (female rats, day 28) was 1.11*, the “Citrate, treatment ratio versus control” value (female rats, day 28) was 1.21* and the “Creatinine, treatment ratio versus control” value (female rats, day 28) was 0.74. The “DAG (C18:1,C18:2), treatment ratio versus control” value (female rats, day 28) was 1.58*, the “Hippuric acid, treatment ratio versus control” value (female rats, day 28) was 0.29* and the “Indole-3-propionic acid, treatment ratio versus control” value (female rats, day 28) was 0.58*. For the same molecule, the “Methionine, treatment ratio versus control” value (female rats, day 28) was 1.15*, the “Proline, treatment ratio versus control” value (female rats, day 28) was 1.25* and the “Serine, treatment ratio versus control” value (female rats, day 28) was 1.41*. The “TAG (C16:0,C18:1,C18:3), treatment ratio versus control” value (female rats, day 28) was 2, the “TAG (C18:1,C18:2), treatment ratio versus control” value (female rats, day 28) was 1.95 and the “TAG (C18:2,C18:2), treatment ratio versus control” value (female rats, day 28) was 2.48*. The “TAG (C18:2,C18:3), treatment ratio versus control” value (female rats, day 28) was 2.26, the “TAG (DAG-Fragment), treatment ratio versus control” value (female rats, day 28) was 2.23* and the “TAG No 02, treatment ratio versus control” value (female rats, day 28) was 0.77*. For the same molecule, the “TAG No 07, treatment ratio versus control” value (female rats, day 28) was 1.45, the “Threonine, treatment ratio versus control” value (female rats, day 28) was 1.23* and the “alpha-Tocopherol, treatment ratio versus control” value (female rats, day 28) was 1.32. For the same molecule, the “Alanine, treatment ratio versus control” value (male rats, day 7) was 1.41*, the “Campesterol, treatment ratio versus control” value (male rats, day 7) was 1.13 and the “Citrate, treatment ratio versus control” value (male rats, day 7) was 1.19*. The “Creatinine, treatment ratio versus control” value (male rats, day 7) was 0.95, the “Glutamate, treatment ratio versus control” value (male rats, day 7) was 0.93 and the “Glutamine, treatment ratio versus control” value (male rats, day 7) was 0.79*. For the same molecule, the “Hippuric acid, treatment ratio versus control” value (male rats, day 7) was 0.91, the “Lysophosphatidylcholine (C20:4), treatment ratio versus control” value (male rats, day 7) was 0.96 and the “Malate, treatment ratio versus control” value (male rats, day 7) was 1.25*. For the same molecule, the “Methionine, treatment ratio versus control” value (male rats, day 7) was 1.08*, the “Ornithine, treatment ratio versus control” value (male rats, day 7) was 1.19* and the “Phosphatidylcholine (C18:0, C22:6), treatment ratio versus control” value (male rats, day 7) was 1.12*. The “Serine, treatment ratio versus control” value (male rats, day 7) was 1.28*, the “Threonic acid, treatment ratio versus control” value (male rats, day 7) was 1.33* and the “Threonine, treatment ratio versus control” value (male rats, day 7) was 1.14. The “Alanine, treatment ratio versus control” value (male rats, day 14) was 1.59*, the “Campesterol, treatment ratio versus control” value (male rats, day 14) was 1.16 and the “Citrate, treatment ratio versus control” value (male rats, day 14) was 1.32*. The “Creatinine, treatment ratio versus control” value (male rats, day 14) was 0.63*, the “Glutamate, treatment ratio versus control” value (male rats, day 14) was 0.74* and the “Glutamine, treatment ratio versus control” value (male rats, day 14) was 0.77*. For the same molecule, the “Hippuric acid, treatment ratio versus control” value (male rats, day 14) was 0.48*, the “Lysophosphatidylcholine (C20:4), treatment ratio versus control” value (male rats, day 14) was 0.93* and the “Malate, treatment ratio versus control” value (male rats, day 14) was 1.16. The “Methionine, treatment ratio versus control” value (male rats, day 14) was 1.16*, the “Ornithine, treatment ratio versus control” value (male rats, day 14) was 1.52* and the “Phosphatidylcholine (C18:0, C22:6), treatment ratio versus control” value (male rats, day 14) was 1.47*. For the same molecule, the “Serine, treatment ratio versus control” value (male rats, day 14) was 1.32*, the “Threonic acid, treatment ratio versus control” value (male rats, day 14) was 1.29* and the “Threonine, treatment ratio versus control” value (male rats, day 14) was 1.29*. The “Alanine, treatment ratio versus control” value (male rats, day 28) was 1.28*, the “Campesterol, treatment ratio versus control” value (male rats, day 28) was 0.59* and the “Citrate, treatment ratio versus control” value (male rats, day 28) was 1.57*. For the same molecule, the “Creatinine, treatment ratio versus control” value (male rats, day 28) was 0.26*, the “Glutamate, treatment ratio versus control” value (male rats, day 28) was 0.78* and the “Glutamine, treatment ratio versus control” value (male rats, day 28) was 0.83*. The “Hippuric acid, treatment ratio versus control” value (male rats, day 28) was 1.43, the “Lysophosphatidylcholine (C20:4), treatment ratio versus control” value (male rats, day 28) was 1.03 and the “Malate, treatment ratio versus control” value (male rats, day 28) was 0.86. For the same molecule, the “Methionine, treatment ratio versus control” value (male rats, day 28) was 1.01, the “Ornithine, treatment ratio versus control” value (male rats, day 28) was 1.47* and the “Phosphatidylcholine (C18:0, C22:6), treatment ratio versus control” value (male rats, day 28) was 1.35*. The “Serine, treatment ratio versus control” value (male rats, day 28) was 1.29*, the “Threonic acid, treatment ratio versus control” value (male rats, day 28) was 1.46* and the “Threonine, treatment ratio versus control” value (male rats, day 28) was 1.21*. For the same molecule, the “capability of inducing an iron adsorption disorder” value (statement in words) was “capable of inducing an iron adsorption disorder”.
